From publication PMC8481536, “Wells–Dawson phosphotungstates as mushroom tyrosinase inhibitors: a speciation study” (Scientific Reports, 2021)
Values joined by “and” are separate entries in the source; they are usually repeats but may differ in a detail not shown here. Equal values may be shown once.

What was measured:
[1] = Speciation / hydrolytic stability of POT solutions in 50 mM Na-citrate buffer pH 6.8 by 31P-NMR and 183W-NMR; type: physicochemical; conditions: for 31P-NMR spectrum 96 h after preparation compared with 48 h: for [P2W12]: signal at −8.3 ppm of hexalacunary anion; for Share of unidentified / unstable solution intermediates: 31P-NMR integrated POT signals, aged solutions; for Share of monolacunary [α2-P2W17O61]10− in solution, 48 h after preparation / Share of monolacunary [α2-P2W17O61]10− in solution, fresh (1 h after preparation) / Share of unchanged educt anion in solution, after 48 h / Share of unchanged educt anion in solution, fresh (1 h): 31P-NMR peak integration; for Share of free phosphate in solution: fresh and 48 h aged ([P2W15]), after rearrangement ([P2W12])
Method: The detailed structural information about species under the respective experimental conditions is essential for understanding of POT activity. […] The concentration of all species was calculated based on ^31P-NMR peaks integration. Since the stock solutions of each Wells–Dawson POT was used up to three days after preparation and ^183W-NMR acquisition takes 60 h, ^31P-NMR spectra for all four solutions have been recorded 1 h and 48 h after preparation to check if speciation changes occur over time. […] In the solution of intact POT one hour after preparation 12% of [α2-P^V2W^VI17O61]^10− was detected based on ^31P-NMR peaks integration (Fig. 3A), whereas 48 h after dissolution the concentration of monolacunary anion increased to 69%. […] The ^183 W-NMR spectra of monolacunary [P2W17]^10− (Fig. S8A) and trilacunary [P2W15]^12− (Fig. S8C) are in agreement with ^31P-NMR data confirming the presence of only the monolacunary anion by 9 signals. The ^31P-NMR spectrum of fresh hexalacunary POT [P2W12]^12− (Fig. 3D) points to the presence of unhydrolyzed hexalacunary [H2P^V2W^VI12O48]^12− (72%) together with a low amount of monolacunary [α2-P^V2W^VI17O61]^10− (20%). After 48 h, the signals corresponding to hexalacunary [H2P^V2W^VI12O48]^12− and monolacunary [α2-P^V2W^VI17O61]^10− decreased to 9% and 3%, respectively, while two intense signals at − 7.5 and − 9.5 ppm appeared. […] The signal at − 7.5 ppm corresponds to [P^V8W^VI48O184]^40−, which was previously detected in solutions with a high amount of NH 4^+[37]. The presence of four different POTs in [P2W12]^12− 48 h after preparation renders the detection of all species’ signals in the ^183W-NMR spectrum impossible due to their low concentrations and the low abundancy (14%) of the ^183W isotope (Fig. S8D). The most intense signals at -190.3, -191.6 and -211.3 ppm correspond to three types of W ions in cyclic [P^V8W^VI48O184]^40−[43]. ^31P-NMR spectra recorded 96 h after preparation are identical to those recorded after 48 h for [P2W18]^6−, [P2W17]^10− and [P2W15]^12−. […] In every ^31P-NMR analysis, peaks for free phosphate were observed, indicating the release of HxPO4^x−3 from the POT clusters as a consequence of partial decomposition or rearrangement (Fig. 3). The weak signals between − 12 and − 7 ppm in the ^31P-NMR spectra (Fig. 3) with a total amount of no more than 19% of all POT signals, correspond to solution intermediates of unknown identity that have been reported previously.
^183W-NMR and ^31P-NMR were recorded with a Bruker FT-NMR spectrometer Avance Neo 500 MHz (Bruker, Rheinstetten, Germany) at 25 °C. Chemical shifts were measured relative to 1 M Na2WO4 and 85% H3PO4. ^183W-NMR samples were prepared in 2.7 mL Na-citrate buffer (50 mM, pH 6.8) with a POT concentration of 2 mM with or without 1 mM L-DOPA and measured in 10 mm tubes. The experimental time was ca. 60 h, with a standard pulse program at 20.836 MHz and a 63° flip angle with 1 s relaxation delay. Subsequently, ^31P-NMR was measured at 202.53 MHz.
^183W-NMR was performed in 50 mM Na-citrate buffer at pH 6.8 to obtain insight into the chemical speciation and hydrolytic stability of POTs. The peaks of the ^183W-NMR for [P2W18]^6− are shifted by approx. 4–5 ppm downfield relative to the assignment in the literature (Table S2). The slight shifting can be explained by different buffer conditions and ionic strength of the solution with regard to the reference data.
The ^183W-NMR speciation indicates the presence of [α2-P^V2W^VI17O61]^10− anions in [P2W18]^6−, [P2W17]^10−, [P2W15]^12− at pH 6.8 (Figs. S8, S12). For the ^183W-NMR of [P2W18]^6− at pH 4 two lines (1:2) were assigned (Fig. S7), whereas for the same compound at neutral pH a mixture of [α-P^V2W^VI18O62]^6− (1:2) and [α2-P^V2W^VI17O61]^10− (2:2:2:2:1:2:2:2:2) was observed (Fig. S8). Also, the β-isomer was detected at pH 4 and pH 6.8, respectively (Figs. S7, S8). […]

Ca^2+-ATPase = tested on: Ca^2+-ATPase; parameters: method as in PMID 29313547; conditions: cited from earlier work
P-type ATPase = tested on: P-type ATPase; parameters: method as in PMID 29313547; conditions: cited from earlier work
aquaporin-3 = tested on: aquaporin-3; parameters: method as in PMID 32252345; conditions: cited from earlier work
[2] = 31P-NMR, 50 mM Na-citrate pH 6.8

| Substance | 31P-NMR spectrum 96 h after preparation compared with 48 h ([1]; 50 mM Na-citrate pH 6.8) | Share of unidentified / unstable solution intermediates ([1]; 50 mM Na-citrate pH 6.8) | Share of monolacunary [α2-P2W17O61]10− in solution, 48 h after preparation ([1]; 50 mM Na-citrate pH 6.8) | Share of monolacunary [α2-P2W17O61]10− in solution, fresh (1 h after preparation) ([1]; 50 mM Na-citrate pH 6.8) [%] | Share of monolacunary [α2-P2W17O61]10− in solution, fresh (1 h after preparation) ([1]; 50 mM Na-citrate pH 6.8, listed as [P^V2W^VI15O56]^12−) | Share of free phosphate in solution [1, 2] [%] | Influence of the substrate L-DOPA on the POT solution (reduction / speciation) ([1]; 50 mM Na-citrate pH 6.8) | Dominant POT species at pH 6.8 in Na-citrate buffer [1] | Stable in Na-citrate buffer at pH 6.8 [1] | Share of unchanged educt anion in solution, after 48 h ([1]; 50 mM Na-citrate pH 6.8) [%] | Share of unchanged educt anion in solution, fresh (1 h) ([1]; 50 mM Na-citrate pH 6.8) [%] | Share of [P2W19O69(H2O)]14− in solution after 48 h [1, 2] [%] | Share of [P8W48O184]40− in solution after 48 h [1, 2] [%] | Inhibition of Ca2+-ATPase (Ca^2+-ATPase) | Inhibition of P-type ATPase (P-type ATPase) | Inhibition of aquaporin-3 (aquaporin-3) | Share of monolacunary [α2-P2W17O61]10− in solution, 48 h after preparation ([1]; 50 mM Na-citrate pH 6.8, listed as [α/β-P^V2W^VI18O62]^6−) | Sample composition after 28 days storage ([1]; Na-citrate buffer pH 6.8, room temperature, 183W-NMR and 31P-NMR) |
| --- | --- | --- | --- | --- | --- | --- | --- | --- | --- | --- | --- | --- | --- | --- | --- | --- | --- | --- |
| K12[P^V2W^VI15O56]·24H2O [[P2W15]^12−] | identical | 3% and 5% | 62% and 61% | 62 | ~ 62% | 35 | no change in speciation | Hx[α2-P^V2W^VI17O61]^(10−x)− | No | – | – | – | – | – | – | – | – | – |
| (NH4)12[H2P^V2W^VI12O48]·24H2O [[P2W12]^12−] | disappeared completely | 19% | 3% | 20 | – | 24 | no change in speciation | [H2P^V2W^VI12O48]^12− + Hx[α2-P^V2W^VI17O61]^(10−x)− + [P^V2W^VI19O69(H2O)]^14− + [P^V8W^VI48O184]^40− | No | 9 | 72 | 22 | 23 | inhibited | inhibited | inhibited | – | – |
| K10[α2-P^V2W^VI17O61]·20H2O [[P2W17]^10−] | identical | 8% | 92% | – | – | – | no change in speciation | Hx[α2-P^V2W^VI17O61]^(10−x)− | Yes | – | – | – | – | – | – | – | – | – |
| K6[α/β-P^V2W^VI18O62]·14H2O [[P2W18]^6−] | identical | 9% | 69% | – | – | – | turned blue | Hx[α2-P^V2W^VI17O61]^(10−x)− | No | 15 | 88 | – | – | inhibited | inhibited | inhibited | ~ 69% | low amounts of the α-isomer were found, but no β-isomer was detected |
